Data reported in patent US9346830B2, “Method for producing amino acid chelate compounds, amino acid chelate compounds and use of amino acid chelate compounds” (ISF AG, priority 2011, dated 2016).

Key:
bulk material properties = type: physicochemical; conditions: water content <2%
Text: The grain shape was examined with the scanning electron microscope and produced the typical, needle-shaped crystals of the glycinates and their agglomerates. With respect to the bulk material properties, the particle distribution analysis found a d50 value of 50 μm. The material is free-flowing, has a water content of <2% and is stable.

[1] = for pH value upon addition to water: 45° C., aqueous solution
Procedure: The procedure for both syntheses was identical so that they are summarized here. 54 g of CaO or respectively MgO were each subjected to a 10-minute activation. In order to have a sufficiently high operating temperature for the thermal activation, the empty mill was already brought to an operating temperature of 110° C. before the experiments. After the mechanical activation, a thermal activation of respectively 15 min. took place in both cases.

| SMILES | pH value upon addition to water [1] | further results |
| --- | --- | --- |
| NCC(=O)[O-].NCC(=O)[O-].[Cu+2] [Example 1, bis (glycinato) copper] | – | stability of the material (bulk material properties): stable |
| [O]=[Mg] [MgO] | – | stability (non-dissolution) in the presence of HCl [1]: stable up to pH 0 |
| NCC(=O)[O-].NCC(=O)[O-].[Ca+2] [calcium glycinate] | 7.5 | – |
| NCC(=O)[O-].NCC(=O)[O-].[Mg+2] [magnesium glycinate] | 8 | – |
